One data set has as its target T1, ppGalNAc-T3 (Homo sapiens, UniProt Q14435).
T1 construct: gene GALNT3; purified lumenal domain (containing catalytic and lectin domains)
T1 sequence (Q14435 38-633 limits assumed): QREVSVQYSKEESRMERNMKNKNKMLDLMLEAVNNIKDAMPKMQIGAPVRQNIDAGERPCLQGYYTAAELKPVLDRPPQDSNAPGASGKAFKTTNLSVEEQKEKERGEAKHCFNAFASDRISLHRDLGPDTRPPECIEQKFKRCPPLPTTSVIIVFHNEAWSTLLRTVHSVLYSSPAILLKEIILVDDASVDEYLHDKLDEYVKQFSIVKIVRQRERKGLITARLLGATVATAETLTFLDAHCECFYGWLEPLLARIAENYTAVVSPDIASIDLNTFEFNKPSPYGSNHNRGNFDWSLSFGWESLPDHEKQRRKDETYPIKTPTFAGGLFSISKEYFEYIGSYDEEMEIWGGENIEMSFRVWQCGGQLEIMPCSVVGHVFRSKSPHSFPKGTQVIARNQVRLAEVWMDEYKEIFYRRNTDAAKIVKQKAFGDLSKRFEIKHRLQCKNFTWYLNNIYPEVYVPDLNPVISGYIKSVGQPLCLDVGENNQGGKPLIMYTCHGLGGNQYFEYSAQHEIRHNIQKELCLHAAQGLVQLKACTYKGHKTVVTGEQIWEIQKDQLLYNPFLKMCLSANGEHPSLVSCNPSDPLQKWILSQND
The data set is described as follows: intrinsic tryptophan fluorescence quenching; also UDP-Glo inhibition of purified enzyme (IC50 […]). Format: binding.

Data set [1] in a line: anti-FLAG immunoblot of cell lysates, with or without chloroquine. The following applies: glycan lost; control: untreated.

Regarding `O=C(Nc1ccc(Nc2ccncc2)cc1)c1ccc(Nc2ccnc3ccc([N+](=O)[O-])cc23)cc1` [compound 1614, T3Inh-1], the Kd on ppGalNAc-T3 was about 17 µM.

B1: FGF23: T3Inh-1 (protein)
parent chain: MLGARLRLWVCALCSVCSMSVLRAYPNASPLLGSSWGGLIHLYTATARNSYHLQIHKNGHVDGAPHQTIYSALMIRSEDAGFVVITGVMSRRYLCMDFRGNIFGSHYFDPENCRFQHQTLENGYDVYHSPQYHFLVSLGRAKRAFLPGMNPPPYSQFLSRRNEIPLIHFNTPIPRRHTRSAEDDSERDPLNVLKPRARMTPAPASCSQELPSAEDNSPMASDPLGVVRGGRVNTHAGGTGPEGCRPFAKFI
Consider B1, for which the expression_or_secretion entry in data set [1] is reported as “no change”.

For the origin of these results see PMC5407854, “Inhibitor of ppGalNAc-T3-mediated O-glycosylation blocks cancer cell invasiveness and lowers FGF23 levels” (eLife, 2017).
